Literature values in PMC3738054 (Journal of immunology (Baltimore, Md. : 1950), 2013).

System: cerebral malaria
Details: oral inhibitor, murine model of cerebral malaria

c1cc(-c2nc3ccc(OCCCN4CCCC4)cc3o2)ccc1OCCCN1CCCC1 [E6446]
efficacy in mitigating inflammatory injury: has shown efficacy
